Measured values: patent publication US20250151724A1, “Liquid Soil Treatments Containing Choline” (Harrell's, LLC, priority 2023, published 2025)
Like-named read-outs stand apart in the source and are kept apart here.

Tested on: creeping bentgrass putting green
Protocol: The study was carried out on a creeping bentgrass putting green. There were two separate trials (Trial 1 and Trial 2). Trial 1 and Trial 2 were conducted side by side. Each trial consisted of 2 treatments with 4 replications. Plot size was 5×6 ft. Regular mowing and irrigation were performed. A randomized block design was used.
The treatments were as follows: • I. Choline Trial 1-Biweekly • 1. Fertilized Control • 2. Choline 0.5 oz./1,000 ft^2 every two weeks • II. Choline Trial 2-Monthly • 1. Fertilized Control • 2. Choline 0.5 oz./1,000 ft^2 every month
Between 0.125″ and 0.25″ of irrigation was applied 3-4 hours post application. All treatments received equal fertility (applied bi-weekly) with 28-8-18 with UMAXX® fertilizer (Harrell's, Lakeland, Florida) applied on the day following application of treatments.
The trials lasted for 15 weeks and a total of 7 treatment applications in the bi-weekly trial and 4 treatment applications in the monthly trial. The following measurements data were taken at the specified intervals throughout the trials: • a. Volumetric water content (VWC) was measured with a TDR350 moisture sensor (Turf-Tec Intentional, Tallahassee, FL) every 2 weeks. In addition, beginning on days 13, 34, and 69, irrigation was withheld for about 9 days to allow gradual decline of the soil water content, inducing significant decline in leaf color and turf quality. Volumetric water content was measured at day 0 (the day of initiation of irrigation withholding), day 3, day 6, and day 9. Irrigation was resumed after day 9 of the first and second dry down cycle. […] Three readings of VWC were collected from each plot and the average was used for statistical analysis. • b. Leaf color was rated based on a visual scale of 1 through 9, with 1 indicating brown color and 9 indicating dark green color. • c. Turf quality was rated based on a visual scale of 1 through 9, with 9 indicating the best quality and 6 indicating the minimum commercially acceptable quality.

[1] = 0.5 oz/1000 ft^2 biweekly, day 0
[2] = 0.5 oz/1000 ft^2 biweekly, day 14
[3] = 0.5 oz/1000 ft^2 biweekly, day 17
[4] = 0.5 oz/1000 ft^2 biweekly, day 20
[5] = 0.5 oz/1000 ft^2 biweekly, day 22
[6] = 0.5 oz/1000 ft^2 biweekly, day 29
[7] = 0.5 oz/1000 ft^2 biweekly, day 34
[8] = 0.5 oz/1000 ft^2 biweekly, day 38
[9] = 0.5 oz/1000 ft^2 biweekly, day 41
[10] = 0.5 oz/1000 ft^2 biweekly, day 43
[11] = 0.5 oz/1000 ft^2 biweekly, day 57
[12] = 0.5 oz/1000 ft^2 biweekly, day 71
[13] = 0.5 oz/1000 ft^2 biweekly, day 76
[14] = 0.5 oz/1000 ft^2 biweekly, day 78
[15] = 0.5 oz/1000 ft^2 biweekly, day 84
[16] = 0.5 oz/1000 ft^2 biweekly, day 98
[17] = 0.5 oz/1000 ft^2 monthly, day 0
[18] = 0.5 oz/1000 ft^2 monthly, day 14
[19] = 0.5 oz/1000 ft^2 monthly, day 17
[20] = 0.5 oz/1000 ft^2 monthly, day 20
[21] = 0.5 oz/1000 ft^2 monthly, day 22
[22] = 0.5 oz/1000 ft^2 monthly, day 29
[23] = 0.5 oz/1000 ft^2 monthly, day 34
[24] = 0.5 oz/1000 ft^2 monthly, day 38
[25] = 0.5 oz/1000 ft^2 monthly, day 41
[26] = 0.5 oz/1000 ft^2 monthly, day 43
[27] = 0.5 oz/1000 ft^2 monthly, day 57
[28] = 0.5 oz/1000 ft^2 monthly, day 71
[29] = 0.5 oz/1000 ft^2 monthly, day 76
[30] = 0.5 oz/1000 ft^2 monthly, day 78
[31] = 0.5 oz/1000 ft^2 monthly, day 84
[32] = 0.5 oz/1000 ft^2 monthly, day 98

In the case of `C[N+](C)(C)CCO.[Cl-]` [Choline, choline chloride], the “Leaf color (1-9, 9 = dark green)” value [1] is reported as 7.0a, the “Turf quality (1-9, 9 = best)” value [1] is reported as 6.9a and the “Leaf color (1-9, 9 = dark green)” value [2] is reported as 7.0a. For the same compound, the “Turf quality (1-9, 9 = best)” value [2] was 7.1a, the “Leaf color (1-9, 9 = dark green)” value [3] was 7.0a and the “Turf quality (1-9, 9 = best)” value [3] was 7.0a. The “Leaf color (1-9, 9 = dark green)” value [4] was 7.0a, the “Turf quality (1-9, 9 = best)” value [4] was 7.0a and the “Leaf color (1-9, 9 = dark green)” value [5] was 6.9a. For the same compound, the “Turf quality (1-9, 9 = best)” value [5] was 7.0a, the “Leaf color (1-9, 9 = dark green)” value [6] was 7.0a and the “Turf quality (1-9, 9 = best)” value [6] was 7.0a. The “Leaf color (1-9, 9 = dark green)” value [7] was 7.4a, the “Turf quality (1-9, 9 = best)” value [7] was 6.9a and the “Leaf color (1-9, 9 = dark green)” value [8] was 7.5a. For the same compound, the “Turf quality (1-9, 9 = best)” value [8] was 7.1a, the “Leaf color (1-9, 9 = dark green)” value [9] was 7.4a and the “Turf quality (1-9, 9 = best)” value [9] was 7.0a. For the same compound, the “Leaf color (1-9, 9 = dark green)” value [10] was 7.1a, the “Turf quality (1-9, 9 = best)” value [10] was 6.5a and the “Leaf color (1-9, 9 = dark green)” value [11] was 6.5a. The “Turf quality (1-9, 9 = best)” value [11] was 5.9a, the “Leaf color (1-9, 9 = dark green)” value [12] was 6.4a and the “Turf quality (1-9, 9 = best)” value [12] was 6.1a. The “Leaf color (1-9, 9 = dark green)” value [13] was 6.5a, the “Turf quality (1-9, 9 = best)” value [13] was 6.0a and the “Leaf color (1-9, 9 = dark green)” value [14] was 6.4a. The “Turf quality (1-9, 9 = best)” value [14] was 5.6a, the “Leaf color (1-9, 9 = dark green)” value [15] was 6.8a and the “Turf quality (1-9, 9 = best)” value [15] was 5.8a. The “Leaf color (1-9, 9 = dark green)” value [16] was 7.0a, the “Turf quality (1-9, 9 = best)” value [16] was 6.1a and the “Leaf color (1-9, 9 = dark green)” value [17] was 7.0a. The “Turf quality (1-9, 9 = best)” value [17] was 7.0a, the “Leaf color (1-9, 9 = dark green)” value [18] was 6.9a and the “Turf quality (1-9, 9 = best)” value [18] was 6.9a. For the same compound, the “Leaf color (1-9, 9 = dark green)” value [19] was 7.0a, the “Turf quality (1-9, 9 = best)” value [19] was 7.0a and the “Leaf color (1-9, 9 = dark green)” value [20] was 7.0a. The “Turf quality (1-9, 9 = best)” value [20] was 7.3a, the “Leaf color (1-9, 9 = dark green)” value [21] was 6.9a and the “Turf quality (1-9, 9 = best)” value [21] was 6.6a. For the same compound, the “Leaf color (1-9, 9 = dark green)” value [22] was 7.0a, the “Turf quality (1-9, 9 = best)” value [22] was 6.6a and the “Leaf color (1-9, 9 = dark green)” value [23] was 7.5a. For the same compound, the “Turf quality (1-9, 9 = best)” value [23] was 7.3a, the “Leaf color (1-9, 9 = dark green)” value [24] was 7.1a and the “Turf quality (1-9, 9 = best)” value [24] was 7.0a. For the same compound, the “Leaf color (1-9, 9 = dark green)” value [25] was 7.5a, the “Turf quality (1-9, 9 = best)” value [25] was 7.0a and the “Leaf color (1-9, 9 = dark green)” value [26] was 6.9a. The “Turf quality (1-9, 9 = best)” value [26] was 6.6a, the “Leaf color (1-9, 9 = dark green)” value [27] was 7.1a and the “Turf quality (1-9, 9 = best)” value [27] was 6.8a. For the same compound, the “Leaf color (1-9, 9 = dark green)” value [28] was 6.9a, the “Turf quality (1-9, 9 = best)” value [28] was 6.8a and the “Leaf color (1-9, 9 = dark green)” value [29] was 7.0a. The “Turf quality (1-9, 9 = best)” value [29] was 6.6a, the “Leaf color (1-9, 9 = dark green)” value [30] was 7.0a and the “Turf quality (1-9, 9 = best)” value [30] was 6.5a. For the same compound, the “Leaf color (1-9, 9 = dark green)” value [31] was 7.3a, the “Turf quality (1-9, 9 = best)” value [31] was 7.0a and the “Leaf color (1-9, 9 = dark green)” value [32] was 7.7a. The “Turf quality (1-9, 9 = best)” value [32] was 7.3a.
